Experimental data taken from ChEMBL document CHEMBL1275577, “Study of the in vitro activities of rifaximin and comparator agents against 536 anaerobic intestinal bacteria from the perspective of potential utility in pathology involving bowel flora” (Antimicrob Agents Chemother, 2009).
Values after ≈ are worked out from the molar mass of the structure shown.

Tests used:
Format in all cases: functional
[1] = test system: Desulfovibrio desulfuricans; experiment: Antimicrobial activity against Desulfovibrio desulfuricans by Wadsworth agar dilution method in presence of beta-lactamase inhibitor Sulbactam
[2] = test system: Clostridium paraputrificum; experiment: Antimicrobial activity against Clostridium paraputrificum by Wadsworth agar dilution method in presence of beta-lactamase inhibitor Sulbactam
Bacteroides fragilis = experiment: Antimicrobial activity against Bacteroides fragilis by Wadsworth agar dilution method in presence of beta-lactamase inhibitor Sulbactam
Bifidobacterium longum = experiment: Antimicrobial activity against Bifidobacterium longum by Wadsworth agar dilution method in presence of beta-lactamase inhibitor Sulbactam
Finegoldia magna = experiment: Antimicrobial activity against Finegoldia magna by Wadsworth agar dilution method in presence of beta-lactamase inhibitor Sulbactam
[3] = test system: Porphyromonas asaccharolytica; experiment: Antimicrobial activity against Porphyromonas asaccharolyticus by Wadsworth agar dilution method in presence of beta-lactamase inhibitor Sulbactam
Anaerococcus tetradius = experiment: Antimicrobial activity against Anaerococcus tetradius by Wadsworth agar dilution method in presence of beta-lactamase inhibitor Sulbactam
Prevotella corporis [4] = experiment: Antimicrobial activity against Prevotella corporis by Wadsworth agar dilution method in presence of beta-lactamase inhibitor Sulbactam
Clostridium disporicum [5] = experiment: Antimicrobial activity against Clostridium disporicum by Wadsworth agar dilution method in presence of beta-lactamase inhibitor Sulbactam
Collinsella aerofaciens = experiment: Antimicrobial activity against Colinsella aerofaciens by Wadsworth agar dilution method in presence of beta-lactamase inhibitor Sulbactam
Blautia producta [6] = experiment: Antimicrobial activity against Ruminococcus productus by Wadsworth agar dilution method in presence of beta-lactamase inhibitor Sulbactam
Clostridium sp. [7] = experiment: Antimicrobial activity against Clostridium sp. by Wadsworth agar dilution method in presence of beta-lactamase inhibitor Sulbactam
[8] = test system: Paraclostridium bifermentans; experiment: Antimicrobial activity against Clostridium bifermentans by Wadsworth agar dilution method in presence of beta-lactamase inhibitor Sulbactam
Clostridium septicum = experiment: Antimicrobial activity against Clostridium septicum by Wadsworth agar dilution method in presence of beta-lactamase inhibitor Sulbactam
[9] = test system: Peptostreptococcus anaerobius; experiment: Antimicrobial activity against Peptostreptococcus anaerobius by Wadsworth agar dilution method in presence of beta-lactamase inhibitor Sulbactam
[10] = test system: Bifidobacterium pseudolongum; experiment: Antimicrobial activity against Bifidobacterium pseudolongum by Wadsworth agar dilution method in presence of beta-lactamase inhibitor Sulbactam
Blautia luti = experiment: Antimicrobial activity against Ruminococcus luti by Wadsworth agar dilution method in presence of beta-lactamase inhibitor Sulbactam
Prevotella disiens = experiment: Antimicrobial activity against Prevotella disiens by Wadsworth agar dilution method in presence of beta-lactamase inhibitor Sulbactam
[11] = test system: Lactobacillus catenaformis; experiment: Antimicrobial activity against Lactobacillus catenaformis by Wadsworth agar dilution method in presence of beta-lactamase inhibitor Sulbactam; settings: Eggerthia catenaformis
Clostridium perfringens = experiment: Antimicrobial activity against Clostridium perfringens by Wadsworth agar dilution method in presence of beta-lactamase inhibitor Sulbactam
Eubacterium saburreum = experiment: Antimicrobial activity against Eubacterium saburreum by Wadsworth agar dilution method; settings: Lachnoanaerobaculum saburreum
Prevotella intermedia = experiment: Antimicrobial activity against Prevotella intermedia by Wadsworth agar dilution method
Fusobacterium varium = experiment: Antimicrobial activity against Fusobacterium varium by Wadsworth agar dilution method
[12] = test system: Clostridium aminobutyricum; experiment: Antimicrobial activity against Clostridium aminobutyricum by Wadsworth agar dilution method
Clostridium glycolicum = experiment: Antimicrobial activity against Clostridium glycolicum by Wadsworth agar dilution method; settings: Terrisporobacter glycolicus
[13] = test system: Parabacteroides goldsteinii; experiment: Antimicrobial activity against Parabacteroides goldsteinii by Wadsworth agar dilution method
Clostridium disporicum [14] = experiment: Antimicrobial activity against Clostridium disporicum by Wadsworth agar dilution method
Fusobacterium nucleatum = experiment: Antimicrobial activity against Fusobacterium nucleatum by Wadsworth agar dilution method
Blautia producta [15] = experiment: Antimicrobial activity against Ruminococcus productus by Wadsworth agar dilution method
[16] = test system: Pseudoramibacter alactolyticus; experiment: Antimicrobial activity against Eubacterium alactolyticum by Wadsworth agar dilution method
[17] = test system: Bacteroides thetaiotaomicron; experiment: Antimicrobial activity against Bacteroides thetaiotaomicron by Wadsworth agar dilution method
Prevotella corporis [18] = experiment: Antimicrobial activity against Prevotella corporis by Wadsworth agar dilution method
Porphyromonas uenonis = experiment: Antimicrobial activity against Porphyromonas uenonis by Wadsworth agar dilution method
Parabacteroides merdae = experiment: Antimicrobial activity against Parabacteroides merdae by Wadsworth agar dilution method
Clostridium cadaveris = experiment: Antimicrobial activity against Clostridium cadaveris by Wadsworth agar dilution method
Clostridium sp. [19] = experiment: Antimicrobial activity against Clostridium sp. by Wadsworth agar dilution method
Lactobacillus jensenii = experiment: Antimicrobial activity against Lactobacillus jensenii by Wadsworth agar dilution method
[20] = test system: Clostridium acetobutylicum; experiment: Antimicrobial activity against Clostridium acetobutylicum by Wadsworth agar dilution method
[21] = test system: Paraclostridium bifermentans; experiment: Antimicrobial activity against Clostridium bifermentans by Wadsworth agar dilution method

SMILES: CC1(C)S[C@@H]2[C@H](NC(=O)[C@H](N)c3ccccc3)C(=O)N2[C@H]1C(=O)O [AMPICILLIN]
- MIC50 [1]: 8 mg/L
- MIC90 [1]: 8 mg/L
- MIC [2]: 0.25 mg/L
- MIC50 [2]: 0.25 mg/L
- MIC90 [2]: 1 mg/L
- MIC50 (Bacteroides fragilis): 1 mg/L
- MIC90 (Bacteroides fragilis): 16 mg/L
- MIC (Bifidobacterium longum): 0.25 mg/L
- MIC50 (Bifidobacterium longum): 0.25 mg/L
- MIC90 (Bifidobacterium longum): 2 mg/L
- MIC (Finegoldia magna): 0.25 mg/L
- MIC50 (Finegoldia magna): 0.25 mg/L
- MIC90 (Finegoldia magna): 2 mg/L
- MIC [3]: 0.25 mg/L
- MIC50 [3]: 0.25 mg/L
- MIC90 [3]: 0.5 mg/L
- MIC (Anaerococcus tetradius): 0.25 mg/L
- MIC50 (Anaerococcus tetradius): 0.25 mg/L
- MIC90 (Anaerococcus tetradius): 2 mg/L
- MIC50 (Prevotella corporis [4]): 0.5 mg/L
- MIC90 (Prevotella corporis [4]): 4 mg/L
- MIC (Clostridium disporicum [5]): 0.25 mg/L
- MIC50 (Clostridium disporicum [5]): 0.25 mg/L
- MIC90 (Clostridium disporicum [5]): 1 mg/L
- MIC (Collinsella aerofaciens): 0.25 mg/L
- MIC50 (Collinsella aerofaciens): 0.25 mg/L
- MIC90 (Collinsella aerofaciens): 2 mg/L
- MIC (Blautia producta [6]): 0.25 mg/L
- MIC50 (Blautia producta [6]): 0.25 mg/L
- MIC90 (Blautia producta [6]): 2 mg/L
- MIC (Clostridium sp. [7]): 0.25 mg/L
- MIC50 (Clostridium sp. [7]): 0.25 mg/L
- MIC90 (Clostridium sp. [7]): 1 mg/L
- MIC [8]: 0.25 mg/L
- MIC50 [8]: 0.25 mg/L
- MIC90 [8]: 1 mg/L
- MIC (Clostridium septicum): 0.25 mg/L
- MIC50 (Clostridium septicum): 0.25 mg/L
- MIC90 (Clostridium septicum): 1 mg/L
- MIC [9]: 0.25 mg/L
- MIC50 [9]: 0.25 mg/L
- MIC90 [9]: 2 mg/L
- MIC [10]: 0.25 mg/L
- MIC50 [10]: 0.25 mg/L
- MIC90 [10]: 2 mg/L
- MIC (Blautia luti): 0.25 mg/L
- MIC50 (Blautia luti): 0.25 mg/L
- MIC90 (Blautia luti): 2 mg/L
- MIC50 (Prevotella disiens): 0.5 mg/L
- MIC90 (Prevotella disiens): 4 mg/L
- MIC [11]: 0.25 mg/L
- MIC50 [11]: 0.25 mg/L
- MIC90 [11]: 2 mg/L
- MIC50 (Clostridium perfringens): 0.25 mg/L
- MIC90 (Clostridium perfringens): 0.25 mg/L

SMILES: NC[C@@H]1O[C@H](O[C@H]2[C@@H](O)[C@H](O[C@@H]3[C@@H](O)[C@H](N)C[C@H](N)[C@H]3O[C@H]3O[C@H](CN)[C@@H](O)[C@H](O)[C@H]3N)O[C@@H]2CO)[C@H](N)[C@@H](O)[C@@H]1O [FRAMYCETIN]
- MIC50 (Eubacterium saburreum): 128 mg/L (≈ 208 µM)
- MIC90 (Eubacterium saburreum): 1020 mg/L (≈ 1670 µM)
- MIC50 (Prevotella intermedia): 512 mg/L (≈ 833 µM)
- MIC90 (Prevotella intermedia): 1020 mg/L (≈ 1670 µM)
- MIC50 (Fusobacterium varium): 512 mg/L (≈ 833 µM)
- MIC90 (Fusobacterium varium): > 1020 mg/L
- MIC50 [12]: 256 mg/L (≈ 416 µM)
- MIC90 [12]: 1020 mg/L (≈ 1670 µM)
- MIC50 (Clostridium glycolicum): 256 mg/L (≈ 416 µM)
- MIC90 (Clostridium glycolicum): 1020 mg/L (≈ 1670 µM)
- MIC50 [13]: 1020 mg/L (≈ 1670 µM)
- MIC90 [13]: > 1020 mg/L
- MIC50 (Clostridium disporicum [14]): 256 mg/L (≈ 416 µM)
- MIC90 (Clostridium disporicum [14]): 1020 mg/L (≈ 1670 µM)
- MIC50 (Fusobacterium nucleatum): 1020 mg/L (≈ 1670 µM)
- MIC90 (Fusobacterium nucleatum): 1020 mg/L (≈ 1670 µM)
- MIC50 (Blautia producta [15]): 128 mg/L (≈ 208 µM)
- MIC90 (Blautia producta [15]): 512 mg/L (≈ 833 µM)
- MIC50 [16]: 128 mg/L (≈ 208 µM)
- MIC90 [16]: 1020 mg/L (≈ 1670 µM)
- MIC50 [17]: > 1020 mg/L
- MIC90 [17]: > 1020 mg/L
- MIC50 (Prevotella corporis [18]): 512 mg/L (≈ 833 µM)
- MIC90 (Prevotella corporis [18]): 1020 mg/L (≈ 1670 µM)
- MIC50 (Porphyromonas uenonis): 512 mg/L (≈ 833 µM)
- MIC90 (Porphyromonas uenonis): > 1020 mg/L
- MIC50 (Parabacteroides merdae): 1020 mg/L (≈ 1670 µM)
- MIC90 (Parabacteroides merdae): > 1020 mg/L
- MIC50 (Clostridium cadaveris): 256 mg/L (≈ 416 µM)
- MIC90 (Clostridium cadaveris): 1020 mg/L (≈ 1670 µM)
- MIC50 (Clostridium sp. [19]): 256 mg/L (≈ 416 µM)
- MIC90 (Clostridium sp. [19]): 1020 mg/L (≈ 1670 µM)
- MIC50 (Lactobacillus jensenii): 128 mg/L (≈ 208 µM)
- MIC90 (Lactobacillus jensenii): 1020 mg/L (≈ 1670 µM)
- MIC50 [20]: 256 mg/L (≈ 416 µM)
- MIC90 [20]: 1020 mg/L (≈ 1670 µM)
- MIC50 [21]: 256 mg/L (≈ 416 µM)
- MIC90 [21]: 1020 mg/L (≈ 1670 µM)
